The results in this text go back to ChEMBL document CHEMBL5291721, “A preclinical secondary pharmacology resource illuminates target-adverse drug reaction associations of marketed drugs” (Nat Commun, 2023).

Experiment [1] addresses T1, Alpha-1A adrenergic receptor (Homo sapiens, UniProt P35348).
T1 sequence (P35348 whole entry): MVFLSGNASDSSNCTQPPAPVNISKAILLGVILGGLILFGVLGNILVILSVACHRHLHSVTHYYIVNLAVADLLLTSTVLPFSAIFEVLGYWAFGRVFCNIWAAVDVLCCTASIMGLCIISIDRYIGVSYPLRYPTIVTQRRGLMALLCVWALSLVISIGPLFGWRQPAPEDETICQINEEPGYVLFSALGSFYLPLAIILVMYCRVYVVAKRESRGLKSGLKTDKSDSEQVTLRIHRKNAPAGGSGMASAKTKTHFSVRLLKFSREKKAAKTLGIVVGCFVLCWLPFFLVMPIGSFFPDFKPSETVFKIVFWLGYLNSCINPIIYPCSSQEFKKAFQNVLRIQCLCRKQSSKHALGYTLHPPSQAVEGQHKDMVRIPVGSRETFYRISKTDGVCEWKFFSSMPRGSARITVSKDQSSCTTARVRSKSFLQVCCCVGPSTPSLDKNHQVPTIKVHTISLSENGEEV
The format is functional, cell-based.

The target of experiment [2] is T2, Muscarinic acetylcholine receptor M2 (Homo sapiens, UniProt P08172).
T2 sequence (P08172 whole entry): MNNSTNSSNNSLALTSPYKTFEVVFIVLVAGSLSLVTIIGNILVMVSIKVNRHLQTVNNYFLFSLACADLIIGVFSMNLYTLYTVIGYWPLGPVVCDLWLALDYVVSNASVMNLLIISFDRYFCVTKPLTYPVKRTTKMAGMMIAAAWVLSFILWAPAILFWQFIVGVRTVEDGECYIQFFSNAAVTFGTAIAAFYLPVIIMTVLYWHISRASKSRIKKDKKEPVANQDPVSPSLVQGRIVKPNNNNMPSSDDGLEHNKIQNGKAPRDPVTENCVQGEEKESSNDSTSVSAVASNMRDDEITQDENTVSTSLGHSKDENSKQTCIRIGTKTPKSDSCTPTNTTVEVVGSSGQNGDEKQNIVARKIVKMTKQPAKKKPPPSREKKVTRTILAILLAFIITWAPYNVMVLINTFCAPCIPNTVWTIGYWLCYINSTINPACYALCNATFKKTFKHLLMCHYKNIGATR

For another experiment, the target named is T3, Estrogen receptor (Homo sapiens, UniProt P03372).
T3 sequence (P03372 whole entry): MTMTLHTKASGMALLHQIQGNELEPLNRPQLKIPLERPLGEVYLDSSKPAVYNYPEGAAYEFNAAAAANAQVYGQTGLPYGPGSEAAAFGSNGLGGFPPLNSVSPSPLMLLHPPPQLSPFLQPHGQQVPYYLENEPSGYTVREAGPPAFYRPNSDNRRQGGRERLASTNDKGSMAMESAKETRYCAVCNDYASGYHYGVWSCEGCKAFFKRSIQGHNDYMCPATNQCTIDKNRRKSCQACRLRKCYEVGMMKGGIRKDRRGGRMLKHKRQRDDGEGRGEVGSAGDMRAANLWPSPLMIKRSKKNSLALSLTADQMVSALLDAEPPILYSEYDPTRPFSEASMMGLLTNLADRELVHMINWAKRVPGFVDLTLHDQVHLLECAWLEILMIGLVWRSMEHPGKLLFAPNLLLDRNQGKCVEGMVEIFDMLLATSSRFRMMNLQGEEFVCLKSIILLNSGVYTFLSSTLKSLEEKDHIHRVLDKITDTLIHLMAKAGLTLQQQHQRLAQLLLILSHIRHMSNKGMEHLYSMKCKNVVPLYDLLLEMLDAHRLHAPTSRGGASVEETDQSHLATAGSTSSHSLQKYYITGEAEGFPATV

Experiment [3] deals with cGMP-inhibited 3',5'-cyclic phosphodiesterase 3A (Homo sapiens, UniProt Q14432). The experiment is classed as functional.
cGMP-inhibited 3',5'-cyclic phosphodiesterase 3A, sequence (Q14432 whole entry): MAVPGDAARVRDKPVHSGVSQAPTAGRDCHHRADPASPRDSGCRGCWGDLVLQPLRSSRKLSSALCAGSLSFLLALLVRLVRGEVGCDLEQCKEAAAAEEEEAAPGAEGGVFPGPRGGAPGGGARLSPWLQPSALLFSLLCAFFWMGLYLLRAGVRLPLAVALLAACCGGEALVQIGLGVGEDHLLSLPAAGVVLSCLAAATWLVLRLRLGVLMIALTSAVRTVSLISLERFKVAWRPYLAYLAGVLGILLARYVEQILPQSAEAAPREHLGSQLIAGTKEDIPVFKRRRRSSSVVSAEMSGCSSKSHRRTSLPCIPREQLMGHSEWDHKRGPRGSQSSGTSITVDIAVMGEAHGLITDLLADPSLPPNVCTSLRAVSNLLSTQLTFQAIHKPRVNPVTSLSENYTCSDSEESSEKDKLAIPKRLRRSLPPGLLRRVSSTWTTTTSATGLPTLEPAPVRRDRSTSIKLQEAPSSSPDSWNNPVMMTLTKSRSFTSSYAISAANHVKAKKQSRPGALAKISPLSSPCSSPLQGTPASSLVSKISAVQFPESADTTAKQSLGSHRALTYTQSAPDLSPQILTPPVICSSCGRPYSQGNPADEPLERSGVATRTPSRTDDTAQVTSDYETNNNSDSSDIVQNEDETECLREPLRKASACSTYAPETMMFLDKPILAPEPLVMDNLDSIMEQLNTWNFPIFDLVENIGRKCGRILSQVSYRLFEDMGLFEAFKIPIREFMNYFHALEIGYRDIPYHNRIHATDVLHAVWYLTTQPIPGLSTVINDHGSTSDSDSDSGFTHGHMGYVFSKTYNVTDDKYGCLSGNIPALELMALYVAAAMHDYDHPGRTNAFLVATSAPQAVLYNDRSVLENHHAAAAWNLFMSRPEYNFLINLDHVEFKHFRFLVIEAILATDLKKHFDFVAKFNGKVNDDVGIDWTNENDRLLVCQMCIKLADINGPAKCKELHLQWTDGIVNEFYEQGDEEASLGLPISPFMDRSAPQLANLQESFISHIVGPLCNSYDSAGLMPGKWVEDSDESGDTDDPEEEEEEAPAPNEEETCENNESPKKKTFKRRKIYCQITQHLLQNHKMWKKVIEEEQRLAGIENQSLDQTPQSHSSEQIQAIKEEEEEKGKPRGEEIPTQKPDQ
The target of another experiment is T4, Progesterone receptor (Homo sapiens, UniProt P06401).
T4 sequence (P06401 whole entry): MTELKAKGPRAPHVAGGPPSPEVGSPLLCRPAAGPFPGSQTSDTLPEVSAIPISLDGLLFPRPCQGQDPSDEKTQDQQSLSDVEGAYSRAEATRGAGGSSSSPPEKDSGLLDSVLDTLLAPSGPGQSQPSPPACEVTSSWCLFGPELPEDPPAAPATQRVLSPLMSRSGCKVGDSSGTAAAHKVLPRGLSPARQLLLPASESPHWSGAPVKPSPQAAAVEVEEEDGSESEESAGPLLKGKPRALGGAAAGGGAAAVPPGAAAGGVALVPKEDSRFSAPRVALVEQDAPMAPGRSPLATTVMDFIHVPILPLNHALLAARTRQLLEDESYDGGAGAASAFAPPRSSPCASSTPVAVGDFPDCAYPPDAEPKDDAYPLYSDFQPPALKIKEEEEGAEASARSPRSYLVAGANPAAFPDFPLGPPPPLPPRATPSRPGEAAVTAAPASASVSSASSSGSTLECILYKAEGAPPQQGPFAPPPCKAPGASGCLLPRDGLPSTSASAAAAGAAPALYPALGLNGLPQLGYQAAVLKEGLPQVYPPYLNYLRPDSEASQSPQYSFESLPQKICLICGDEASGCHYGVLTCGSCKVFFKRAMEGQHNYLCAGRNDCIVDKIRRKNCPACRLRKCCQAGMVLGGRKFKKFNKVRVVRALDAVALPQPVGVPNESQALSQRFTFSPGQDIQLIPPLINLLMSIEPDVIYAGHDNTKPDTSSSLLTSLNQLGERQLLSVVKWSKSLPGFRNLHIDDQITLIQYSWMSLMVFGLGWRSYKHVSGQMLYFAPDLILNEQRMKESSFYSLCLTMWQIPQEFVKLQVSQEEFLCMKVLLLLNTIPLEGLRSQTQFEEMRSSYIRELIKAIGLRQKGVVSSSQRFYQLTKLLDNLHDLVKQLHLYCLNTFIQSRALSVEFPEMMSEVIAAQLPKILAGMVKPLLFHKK

Experiment [4] has as its target Prostaglandin G/H synthase 1 (Homo sapiens, UniProt P23219). The experiment is classed as functional.

The AC50 is the midpoint of the concentration-response curve, whichever way the signal moves. Higher therefore signals weaker potency.

Each structure is given as a SMILES string.
Also: assay procedure not described here.

Prostaglandin G/H synthase 1, sequence (P23219 whole entry): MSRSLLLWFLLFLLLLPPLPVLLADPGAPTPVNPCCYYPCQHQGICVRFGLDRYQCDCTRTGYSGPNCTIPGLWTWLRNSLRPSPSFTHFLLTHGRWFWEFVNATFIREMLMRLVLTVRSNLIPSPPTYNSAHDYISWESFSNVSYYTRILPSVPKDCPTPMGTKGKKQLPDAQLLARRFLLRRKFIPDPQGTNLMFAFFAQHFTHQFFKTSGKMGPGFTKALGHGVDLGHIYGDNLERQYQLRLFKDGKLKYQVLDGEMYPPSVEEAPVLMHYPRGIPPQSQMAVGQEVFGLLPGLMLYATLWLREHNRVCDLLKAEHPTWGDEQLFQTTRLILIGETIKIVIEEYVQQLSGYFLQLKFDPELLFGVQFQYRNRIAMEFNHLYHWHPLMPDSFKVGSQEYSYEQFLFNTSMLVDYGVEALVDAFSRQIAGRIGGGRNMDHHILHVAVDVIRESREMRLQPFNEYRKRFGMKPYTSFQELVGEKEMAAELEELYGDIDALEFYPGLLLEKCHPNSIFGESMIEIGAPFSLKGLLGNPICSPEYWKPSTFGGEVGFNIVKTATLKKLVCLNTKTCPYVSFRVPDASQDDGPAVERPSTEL

In the case of `NC(=O)c1cccc2cn(-c3ccc([C@@H]4CCCNC4)cc3)nc12` [NIRAPARIB], the AC50 in experiment [1] is > 30 µM; in experiment [2], 14.4 µM; at Estrogen receptor, > 30 µM; in experiment [3], > 30 µM; on Progesterone receptor, > 30 µM; in experiment [4], > 30 µM.

On to `COc1ccc2c(c1)OC(C)(C)C(c1ccccc1)C2c1ccc(OCCN2CCCC2)cc1` (stereo not given) [ORMELOXIFENE], for which the AC50 in experiment [1] is 13.4 µM; in experiment [2], 9.13 µM; at Estrogen receptor it was 1.29 µM; in experiment [3], > 30 µM; on Progesterone receptor it was 3.57 µM; in experiment [4] it was 3.31 µM.

As for `Nc1nc2c(ncn2CCC(CO)CO)c(=O)[nH]1` [PENCICLOVIR], the AC50 (in experiment [1]; in experiment [2]; on Estrogen receptor; in experiment [3]; on Progesterone receptor; in experiment [4]) was > 30 µM each time.

As for `O=C(O)CCn1c2c(c3ccccc31)C[C@H](NS(=O)(=O)c1ccc(F)cc1)CC2` [RAMATROBAN], the AC50 in experiment [1] was > 30 µM; in experiment [2], > 30 µM; on Estrogen receptor, > 10 µM; in experiment [3], > 30 µM; on Progesterone receptor it was > 30 µM; in experiment [4], > 30 µM.

As for `CCO[C@@H](Cc1ccc(OCCn2c(C)ccc2-c2ccc(SC)cc2)cc1)C(=O)O` [SAROGLITAZAR], the AC50 in experiment [1] is 15 µM; in experiment [2], > 30 µM; at Estrogen receptor, > 30 µM; in experiment [3], > 30 µM; at Progesterone receptor it was 8.57 µM; in experiment [4], 9.49 µM.

On to `CN1CCC2=C(C1)c1ccccc1Cc1ccccc12` [SETIPTILINE], for which the AC50 in experiment [1] was > 30 µM; in experiment [2], 0.855 µM; at Estrogen receptor, > 30 µM; in experiment [3], > 30 µM; on Progesterone receptor, > 30 µM; in experiment [4], > 30 µM.

Take `COc1ccc(CCC(C)NCC(O)c2ccc(O)c([S+](C)[O-])c2)cc1` (stereo not given) [SULFINALOL]: the AC50 (in experiment [1]; in experiment [2]; at Estrogen receptor; in experiment [3]; on Progesterone receptor; in experiment [4]) was > 30 µM in each case.

With `CCC1C(C)=NN=C(c2ccc(OC)c(OC)c2)c2cc(OC)c(OC)cc21` (stereo not given) [TOFISOPAM], the AC50 in experiment [1] is > 30 µM; in experiment [2], > 30 µM; on Estrogen receptor, > 30 µM; in experiment [3] it was 6.62 µM; on Progesterone receptor it was > 30 µM; in experiment [4] it was > 30 µM.

As for `COc1cc(NCc2ccc3nc(N)nc(N)c3c2C)cc(OC)c1OC` [TRIMETREXATE], the AC50 in experiment [1] was > 30 µM; in experiment [2] it was 3.6 µM; on Estrogen receptor, 23 µM; in experiment [3], 11.9 µM; at Progesterone receptor, > 30 µM; in experiment [4], 28.1 µM.

In the case of `COc1cc2c(cc1OC)[C@H]1C[C@@H](OC(=O)[C@@H](N)C(C)C)[C@H](CC(C)C)CN1CC2` [VALBENAZINE], the half-maximal activity concentration (AC50) in experiment [1] was > 30 µM; in experiment [2], > 30 µM; on Estrogen receptor, > 30 µM; in experiment [3], > 30 µM; at Progesterone receptor, > 30 µM; in experiment [4], 5.44 µM.
